One experiment concerns the target Acetylcholinesterase (Homo sapiens, UniProt P22303). The format is functional.
Experiment [1] has as its target T1, Alpha-1A adrenergic receptor (Homo sapiens, UniProt P35348).
T1 sequence (P35348 whole entry): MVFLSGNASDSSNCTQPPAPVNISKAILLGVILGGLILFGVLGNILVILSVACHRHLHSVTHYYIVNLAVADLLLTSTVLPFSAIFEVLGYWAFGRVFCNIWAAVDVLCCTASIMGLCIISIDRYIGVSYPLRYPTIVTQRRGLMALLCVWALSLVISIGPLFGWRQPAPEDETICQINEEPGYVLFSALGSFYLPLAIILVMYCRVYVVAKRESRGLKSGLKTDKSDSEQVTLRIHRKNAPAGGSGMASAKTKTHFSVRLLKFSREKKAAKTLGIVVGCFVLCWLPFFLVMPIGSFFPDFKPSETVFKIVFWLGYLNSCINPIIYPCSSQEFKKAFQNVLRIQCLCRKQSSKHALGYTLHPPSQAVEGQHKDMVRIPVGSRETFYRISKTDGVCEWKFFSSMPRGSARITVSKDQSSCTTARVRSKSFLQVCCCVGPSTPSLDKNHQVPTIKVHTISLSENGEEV
In kind it is functional, cell-based.

Experiment [2] concerns the target T1, Alpha-1A adrenergic receptor. The format is functional, cell-based. This is another data set of the same source.
For experiment [3], the target named is T2, Alpha-2A adrenergic receptor (Homo sapiens, UniProt P08913).
T2 sequence (P08913 whole entry): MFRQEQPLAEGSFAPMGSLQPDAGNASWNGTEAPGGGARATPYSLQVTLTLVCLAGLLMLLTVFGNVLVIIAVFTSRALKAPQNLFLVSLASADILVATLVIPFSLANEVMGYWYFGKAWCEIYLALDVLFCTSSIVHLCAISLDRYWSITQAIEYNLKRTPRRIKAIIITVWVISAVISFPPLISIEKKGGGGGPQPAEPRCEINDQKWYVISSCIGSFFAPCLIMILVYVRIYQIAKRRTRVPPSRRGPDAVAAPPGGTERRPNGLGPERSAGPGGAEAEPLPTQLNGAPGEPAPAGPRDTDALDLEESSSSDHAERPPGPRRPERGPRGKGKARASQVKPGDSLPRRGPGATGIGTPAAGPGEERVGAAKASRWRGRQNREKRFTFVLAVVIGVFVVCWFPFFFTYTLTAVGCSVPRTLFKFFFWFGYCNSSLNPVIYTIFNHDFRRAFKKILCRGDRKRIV

The target of a further experiment is T3, Androgen receptor (Homo sapiens, UniProt P10275).
T3 sequence (P10275 whole entry): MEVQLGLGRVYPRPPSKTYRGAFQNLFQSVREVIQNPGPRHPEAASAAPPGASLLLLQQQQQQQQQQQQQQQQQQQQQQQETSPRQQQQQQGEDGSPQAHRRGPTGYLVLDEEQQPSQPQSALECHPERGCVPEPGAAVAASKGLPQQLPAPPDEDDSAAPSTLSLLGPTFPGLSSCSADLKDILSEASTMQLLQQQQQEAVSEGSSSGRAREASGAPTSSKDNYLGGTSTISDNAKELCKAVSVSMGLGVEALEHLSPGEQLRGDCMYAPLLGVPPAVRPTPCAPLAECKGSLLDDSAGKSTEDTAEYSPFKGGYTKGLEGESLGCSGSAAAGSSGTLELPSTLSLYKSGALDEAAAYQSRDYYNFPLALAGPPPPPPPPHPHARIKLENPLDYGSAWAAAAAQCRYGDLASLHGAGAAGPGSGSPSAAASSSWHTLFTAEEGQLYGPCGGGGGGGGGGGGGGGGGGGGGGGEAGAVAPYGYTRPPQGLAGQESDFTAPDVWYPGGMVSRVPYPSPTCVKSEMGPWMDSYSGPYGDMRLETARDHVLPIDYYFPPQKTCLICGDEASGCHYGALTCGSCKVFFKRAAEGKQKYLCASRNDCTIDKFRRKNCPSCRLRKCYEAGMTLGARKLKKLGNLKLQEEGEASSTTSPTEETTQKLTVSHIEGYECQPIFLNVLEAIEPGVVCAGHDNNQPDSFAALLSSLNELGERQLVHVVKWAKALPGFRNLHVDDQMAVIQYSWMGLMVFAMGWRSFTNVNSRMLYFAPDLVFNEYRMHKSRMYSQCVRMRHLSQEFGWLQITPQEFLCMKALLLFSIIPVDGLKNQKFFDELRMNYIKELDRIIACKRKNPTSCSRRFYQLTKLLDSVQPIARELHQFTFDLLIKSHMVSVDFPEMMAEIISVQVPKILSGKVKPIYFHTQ

The target of experiment [4] is Voltage-dependent L-type calcium channel subunit alpha-1C (Homo sapiens, UniProt Q13936). In kind it is functional, cell-based.
A further experiment addresses Histamine H3 receptor (Homo sapiens, UniProt Q9Y5N1).
Experiment [5] has as its target T4, Amine oxidase [flavin-containing] A (Homo sapiens, UniProt P21397).
T4 sequence (P21397 whole entry): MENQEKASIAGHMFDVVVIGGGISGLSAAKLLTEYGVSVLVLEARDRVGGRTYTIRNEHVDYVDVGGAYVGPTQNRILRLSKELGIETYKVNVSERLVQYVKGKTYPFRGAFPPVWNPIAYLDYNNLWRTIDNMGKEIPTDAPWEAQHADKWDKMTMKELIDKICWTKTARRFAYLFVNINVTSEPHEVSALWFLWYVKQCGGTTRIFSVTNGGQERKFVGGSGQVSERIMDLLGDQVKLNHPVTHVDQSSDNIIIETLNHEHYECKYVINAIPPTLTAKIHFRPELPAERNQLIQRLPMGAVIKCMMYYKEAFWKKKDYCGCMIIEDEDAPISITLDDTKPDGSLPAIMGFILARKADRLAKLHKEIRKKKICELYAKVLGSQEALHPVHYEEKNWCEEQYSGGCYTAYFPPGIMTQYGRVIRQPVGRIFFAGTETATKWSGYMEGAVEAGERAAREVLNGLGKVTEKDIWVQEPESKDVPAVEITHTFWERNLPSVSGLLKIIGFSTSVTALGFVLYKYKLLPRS
In kind it is functional.

For the next experiment, the target named is T5, Thromboxane A2 receptor (Homo sapiens, UniProt P21731).
T5 sequence (P21731 whole entry): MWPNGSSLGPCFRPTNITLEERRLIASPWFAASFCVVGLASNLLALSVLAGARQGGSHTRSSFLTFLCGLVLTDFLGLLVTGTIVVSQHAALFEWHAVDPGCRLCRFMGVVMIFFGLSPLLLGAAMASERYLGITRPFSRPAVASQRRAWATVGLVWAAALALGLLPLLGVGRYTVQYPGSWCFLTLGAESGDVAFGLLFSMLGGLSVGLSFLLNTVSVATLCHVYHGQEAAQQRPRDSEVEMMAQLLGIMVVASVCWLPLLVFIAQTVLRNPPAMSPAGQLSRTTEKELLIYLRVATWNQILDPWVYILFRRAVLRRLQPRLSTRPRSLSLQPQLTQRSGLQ
In kind it is functional, cell-based.

Experiment [6] deals with T1, Alpha-1A adrenergic receptor.
Experiment [7] has as its target Beta-1 adrenergic receptor (Homo sapiens, UniProt P08588). In kind it is functional.
In experiment [8] the target is Beta-2 adrenergic receptor (Homo sapiens, UniProt P07550).
For experiment [9], the target named is Voltage-dependent L-type calcium channel subunit alpha-1C (Rattus norvegicus, UniProt P22002). In kind it is functional.
Chain of Voltage-dependent L-type calcium channel subunit alpha-1C (Rattus norvegicus, UniProt P22002) (P22002 whole entry): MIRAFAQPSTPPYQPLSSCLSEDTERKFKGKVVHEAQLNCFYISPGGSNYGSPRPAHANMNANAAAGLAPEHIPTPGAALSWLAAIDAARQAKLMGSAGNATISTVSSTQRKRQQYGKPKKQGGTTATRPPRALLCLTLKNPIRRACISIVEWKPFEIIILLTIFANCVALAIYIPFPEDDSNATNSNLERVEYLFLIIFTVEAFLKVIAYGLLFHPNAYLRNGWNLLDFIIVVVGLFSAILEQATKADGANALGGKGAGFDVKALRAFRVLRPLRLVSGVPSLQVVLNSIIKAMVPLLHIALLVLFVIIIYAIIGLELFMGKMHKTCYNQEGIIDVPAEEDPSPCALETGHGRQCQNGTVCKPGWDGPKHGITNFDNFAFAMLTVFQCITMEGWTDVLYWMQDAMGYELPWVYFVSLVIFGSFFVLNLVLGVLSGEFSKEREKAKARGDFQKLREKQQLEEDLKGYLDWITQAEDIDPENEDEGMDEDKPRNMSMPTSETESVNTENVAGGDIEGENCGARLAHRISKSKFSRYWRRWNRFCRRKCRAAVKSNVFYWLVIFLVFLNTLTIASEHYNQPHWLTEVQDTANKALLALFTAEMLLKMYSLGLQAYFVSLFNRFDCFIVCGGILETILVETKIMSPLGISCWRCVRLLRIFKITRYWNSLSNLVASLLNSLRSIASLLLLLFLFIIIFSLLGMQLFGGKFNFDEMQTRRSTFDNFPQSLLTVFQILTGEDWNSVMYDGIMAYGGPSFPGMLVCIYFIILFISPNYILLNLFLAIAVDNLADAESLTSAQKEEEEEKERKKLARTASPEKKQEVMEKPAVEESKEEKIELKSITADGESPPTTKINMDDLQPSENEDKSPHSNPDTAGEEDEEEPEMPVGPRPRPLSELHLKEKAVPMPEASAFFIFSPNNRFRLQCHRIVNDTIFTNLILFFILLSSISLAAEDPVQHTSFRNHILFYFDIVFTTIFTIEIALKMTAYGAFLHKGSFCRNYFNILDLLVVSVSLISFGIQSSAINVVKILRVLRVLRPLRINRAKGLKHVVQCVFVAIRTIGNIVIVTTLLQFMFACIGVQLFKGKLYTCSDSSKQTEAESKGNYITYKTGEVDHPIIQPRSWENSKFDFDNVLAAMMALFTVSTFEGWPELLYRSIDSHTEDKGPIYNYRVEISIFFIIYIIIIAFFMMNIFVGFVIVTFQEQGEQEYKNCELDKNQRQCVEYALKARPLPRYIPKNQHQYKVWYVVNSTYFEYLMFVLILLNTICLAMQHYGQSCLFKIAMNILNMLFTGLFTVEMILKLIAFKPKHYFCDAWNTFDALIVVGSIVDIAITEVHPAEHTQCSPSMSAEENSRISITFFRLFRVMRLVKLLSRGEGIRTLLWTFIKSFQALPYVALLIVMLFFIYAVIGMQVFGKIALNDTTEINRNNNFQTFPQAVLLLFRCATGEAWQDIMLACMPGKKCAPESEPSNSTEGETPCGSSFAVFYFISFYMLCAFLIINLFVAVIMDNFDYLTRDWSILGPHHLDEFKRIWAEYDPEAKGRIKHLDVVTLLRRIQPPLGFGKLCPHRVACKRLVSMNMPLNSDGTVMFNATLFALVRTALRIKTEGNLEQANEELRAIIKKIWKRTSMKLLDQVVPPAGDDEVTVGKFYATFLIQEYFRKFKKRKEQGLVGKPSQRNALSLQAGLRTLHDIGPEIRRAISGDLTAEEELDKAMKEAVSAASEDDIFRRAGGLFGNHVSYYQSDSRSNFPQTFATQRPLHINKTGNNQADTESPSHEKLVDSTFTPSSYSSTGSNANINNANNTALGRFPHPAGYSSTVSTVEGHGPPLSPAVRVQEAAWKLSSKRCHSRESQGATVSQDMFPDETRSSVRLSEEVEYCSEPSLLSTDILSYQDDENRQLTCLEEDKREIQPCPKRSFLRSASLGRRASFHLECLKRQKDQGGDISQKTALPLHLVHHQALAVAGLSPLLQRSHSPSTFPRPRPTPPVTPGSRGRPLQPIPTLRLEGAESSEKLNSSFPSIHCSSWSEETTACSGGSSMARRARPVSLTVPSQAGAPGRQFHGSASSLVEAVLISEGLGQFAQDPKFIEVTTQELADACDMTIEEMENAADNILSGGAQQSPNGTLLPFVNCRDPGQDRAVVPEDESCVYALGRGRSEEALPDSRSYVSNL
In experiment [10] the target is Glutamate receptor ionotropic, NMDA 1 (Rattus norvegicus, UniProt P35439).
Experiment [11] addresses Neuronal acetylcholine receptor subunit alpha-4 (Homo sapiens, UniProt P43681).
For experiment [12], the target named is T6, Gamma-aminobutyric acid receptor subunit alpha-1 (Rattus norvegicus, UniProt P62813).
T6 sequence (P62813 whole entry): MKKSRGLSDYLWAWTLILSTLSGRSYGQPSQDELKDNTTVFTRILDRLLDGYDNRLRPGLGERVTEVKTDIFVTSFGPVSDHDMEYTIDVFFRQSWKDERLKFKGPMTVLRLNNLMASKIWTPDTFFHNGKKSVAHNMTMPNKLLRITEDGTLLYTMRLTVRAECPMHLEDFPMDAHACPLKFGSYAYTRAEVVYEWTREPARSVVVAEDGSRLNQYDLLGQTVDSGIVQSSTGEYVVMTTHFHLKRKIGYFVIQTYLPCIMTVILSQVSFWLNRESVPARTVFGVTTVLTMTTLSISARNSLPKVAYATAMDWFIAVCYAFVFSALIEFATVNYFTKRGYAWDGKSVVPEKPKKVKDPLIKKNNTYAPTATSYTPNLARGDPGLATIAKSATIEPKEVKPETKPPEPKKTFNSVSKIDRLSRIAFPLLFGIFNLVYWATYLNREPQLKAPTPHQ
Experiment [13] has as its target T6, Gamma-aminobutyric acid receptor subunit alpha-1. The format is functional.
Experiment [14] addresses Voltage-gated inwardly rectifying potassium channel KCNH2 (Homo sapiens, UniProt Q12809). In kind it is functional.
Experiment [15] addresses Delta-type opioid receptor (Homo sapiens, UniProt P41143).
Experiment [16] has as its target Kappa-type opioid receptor (Homo sapiens, UniProt P41145).
Experiment [17] addresses T7, Mu-type opioid receptor (Homo sapiens, UniProt P35372). Nature of the experiment: biochemical. The format is functional.
Experiment [18] deals with Sodium-dependent noradrenaline transporter (Homo sapiens, UniProt P23975).
In experiment [19] the target is T7, Mu-type opioid receptor.
Experiment [20] addresses Epidermal growth factor receptor (Homo sapiens, UniProt P00533). In kind it is functional.
The target of experiment [21] is Growth hormone secretagogue receptor type 1 (Homo sapiens, UniProt Q92847).

7 molecules from ChEMBL document CHEMBL5291721, “A preclinical secondary pharmacology resource illuminates target-adverse drug reaction associations of marketed drugs” (Nat Commun, 2023) can be followed below.

The term AC50 denotes the concentration at which the activity in the assay is half-maximal.
Further: assay procedure not described here.

Chain of Acetylcholinesterase (P22303 whole entry): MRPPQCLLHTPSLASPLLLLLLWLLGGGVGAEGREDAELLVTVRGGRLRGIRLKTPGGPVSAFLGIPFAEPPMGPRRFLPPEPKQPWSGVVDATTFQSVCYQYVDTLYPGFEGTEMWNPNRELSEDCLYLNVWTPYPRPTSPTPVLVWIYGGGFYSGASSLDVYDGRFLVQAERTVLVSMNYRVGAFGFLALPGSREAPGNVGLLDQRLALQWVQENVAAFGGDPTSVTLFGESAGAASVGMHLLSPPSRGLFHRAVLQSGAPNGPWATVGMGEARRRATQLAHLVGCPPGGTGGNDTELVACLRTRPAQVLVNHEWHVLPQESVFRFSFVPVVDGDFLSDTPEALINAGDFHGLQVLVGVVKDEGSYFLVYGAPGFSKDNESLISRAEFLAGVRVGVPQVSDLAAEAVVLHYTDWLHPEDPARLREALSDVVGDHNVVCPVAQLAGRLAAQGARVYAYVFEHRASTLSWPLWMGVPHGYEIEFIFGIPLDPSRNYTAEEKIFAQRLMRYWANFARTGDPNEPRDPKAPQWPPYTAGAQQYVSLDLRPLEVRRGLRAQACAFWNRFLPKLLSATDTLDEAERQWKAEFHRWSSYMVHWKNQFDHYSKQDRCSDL
T7 sequence (P35372 whole entry): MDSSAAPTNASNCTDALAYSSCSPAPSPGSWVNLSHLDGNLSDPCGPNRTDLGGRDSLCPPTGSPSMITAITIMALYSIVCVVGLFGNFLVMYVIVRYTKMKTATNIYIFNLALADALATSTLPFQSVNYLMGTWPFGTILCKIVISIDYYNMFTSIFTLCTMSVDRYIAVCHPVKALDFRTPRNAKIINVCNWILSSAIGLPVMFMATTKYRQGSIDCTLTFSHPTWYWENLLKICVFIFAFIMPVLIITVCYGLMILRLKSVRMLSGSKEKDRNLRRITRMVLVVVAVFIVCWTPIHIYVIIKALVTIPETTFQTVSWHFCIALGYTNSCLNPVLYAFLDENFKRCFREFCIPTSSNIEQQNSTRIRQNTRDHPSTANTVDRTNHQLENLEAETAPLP
Chain of Voltage-gated inwardly rectifying potassium channel KCNH2 (Q12809 whole entry): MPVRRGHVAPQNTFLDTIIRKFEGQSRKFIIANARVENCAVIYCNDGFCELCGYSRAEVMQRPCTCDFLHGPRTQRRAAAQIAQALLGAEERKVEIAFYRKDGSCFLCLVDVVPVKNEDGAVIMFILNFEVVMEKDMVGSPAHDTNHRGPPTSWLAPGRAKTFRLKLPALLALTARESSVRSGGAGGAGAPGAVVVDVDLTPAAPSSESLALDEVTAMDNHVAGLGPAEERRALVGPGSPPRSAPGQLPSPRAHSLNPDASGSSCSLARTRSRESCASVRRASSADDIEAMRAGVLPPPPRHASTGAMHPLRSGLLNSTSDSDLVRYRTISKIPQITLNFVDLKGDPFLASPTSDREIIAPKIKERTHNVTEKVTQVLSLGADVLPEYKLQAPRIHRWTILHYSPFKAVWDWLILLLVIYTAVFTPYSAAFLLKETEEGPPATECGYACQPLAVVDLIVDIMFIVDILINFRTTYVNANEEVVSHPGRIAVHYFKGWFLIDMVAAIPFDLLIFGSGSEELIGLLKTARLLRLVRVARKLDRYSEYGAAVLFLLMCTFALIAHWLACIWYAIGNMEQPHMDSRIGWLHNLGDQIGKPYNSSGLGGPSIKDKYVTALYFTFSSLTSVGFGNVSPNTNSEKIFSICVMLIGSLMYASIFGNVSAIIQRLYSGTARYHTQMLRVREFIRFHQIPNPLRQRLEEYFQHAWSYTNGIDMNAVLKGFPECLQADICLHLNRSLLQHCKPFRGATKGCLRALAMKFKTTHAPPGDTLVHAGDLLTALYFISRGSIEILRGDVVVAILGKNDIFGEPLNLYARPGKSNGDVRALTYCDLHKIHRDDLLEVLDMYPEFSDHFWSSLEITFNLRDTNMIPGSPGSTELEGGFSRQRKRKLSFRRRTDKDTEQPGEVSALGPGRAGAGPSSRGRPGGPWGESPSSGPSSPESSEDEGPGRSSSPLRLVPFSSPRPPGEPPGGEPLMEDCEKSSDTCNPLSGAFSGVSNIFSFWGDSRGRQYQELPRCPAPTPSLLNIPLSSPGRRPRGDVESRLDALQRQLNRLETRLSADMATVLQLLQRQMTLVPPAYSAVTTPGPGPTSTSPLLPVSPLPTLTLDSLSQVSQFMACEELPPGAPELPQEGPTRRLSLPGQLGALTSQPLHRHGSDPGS

Turning to `c1ccc(C2(c3ccccc3)CC2C2=NCCN2)cc1` (centres undefined) [CIFENLINE], the AC50 was greater than 30 µM on Acetylcholinesterase; greater than 30 µM in experiment [1]; greater than 30 µM in [2]; greater than 30 µM in experiment [3]; 22.6 µM at Androgen receptor; greater than 50 µM in [4]. In addition, the AC50 (at Histamine H3 receptor; in [5]) was greater than 30 µM each time.
Regarding `CCCCC[C@H](O)/C=C/[C@@H]1[C@@H](C/C=C\CCCC(=O)O)[C@@H](O)C[C@H]1O` [DINOPROST], at Thromboxane A2 receptor, the concentration at half-maximal activity (AC50) turned out to be 2760 nM.
For `CCc1cc(C(N)=S)ccn1` [ETHIONAMIDE], the AC50 in [6], in experiment [7], in [8], in [9] and in experiment [10] was greater than 10 µM each time.
`CC(C)Oc1ccc2c(=O)c(-c3ccccc3)coc2c1` [IPRIFLAVONE] had an AC50 at Acetylcholinesterase greater than 30 µM.
Regarding `CSCC[C@H](NC(=O)[C@H](Cc1c[nH]c2ccccc12)NC(=O)CCNC(=O)OC(C)(C)C)C(=O)N[C@@H](CC(=O)O)C(=O)N[C@@H](Cc1ccccc1)C(N)=O` [PENTAGASTRIN], the AC50 is greater than 10 µM in experiment [9]; greater than 10 µM in experiment [11]; greater than 10 µM in [12]; greater than 10 µM in experiment [13]; greater than 10 µM in experiment [10]; greater than 30 µM in [14]. Further, the AC50 was greater than 30 µM in experiment [15]; greater than 10 µM in [16]; greater than 30 µM on Mu-type opioid receptor [17]; greater than 10 µM in [18]; greater than 30 µM at Mu-type opioid receptor [19].
`N=C(N)c1ccc(OCCCCCOc2ccc(C(=N)N)cc2)cc1` [PENTAMIDINE] showed a concentration at half-maximal activity (AC50) at Acetylcholinesterase of 7.28 µM.
Regarding `O=C(O)Cc1cc(I)c(Oc2ccc(O)c(I)c2)c(I)c1` [TIRATRICOL], the AC50 in experiment [20] and in [21] was greater than 30 µM in each case.
